Columns and labels:
Format in all cases: in vivo, Sprague Dawley rats
[1] = system: Blood-Retinal Barrier in STZ-Induced Diabetic Rats; experiment: Measurement of Blood Retinal Barrier (BRB) breakdown with FITC-conjugated dextran; details: thymoquinone 2 mg/kg on alternate days, compared with diabetic retinas, FIG. 3
Protocol: Healthy Sprague Dawley rats (150-200 g) were used for the trials. Animals were issued from Central Animal House Facility of the College of Pharmacy, King Saud University and were kept in standard plastic animal cages in groups of 6 animals each with 12 hours light and dark cycle at 25±2° C. The rats were fed on standard rat chow and provided water ad libitum. The animals were acclimatized to laboratory conditions for a week prior to experiments. Diabetes was induced in overnight fasted rats by administration of Streptozotocin (STZ) at dose of 55 mg/kg intraperitoneally in citric acid buffer (pH 4.5). After one hour of STZ administration, the animals were allowed to feed ad libitum. […] Relevant biochemical parameters including serum creatinine, uric acid, alanine aminotransferase (ALT), aspartate aminotransferase (AST), alkaline phosphatase and bilirubin were assessed using colorimetric methods. Rat retinas were analyzed for Blood Retinal Barrier (BRB) breakdown after 3 weeks of thymoquinone dosing using fluorescein isothiocyanate (FITC)-conjugated dextran as previously described in the prior art. […] Fluorescence was measured using a Spectra Max Gemini-XPS with excitation and emission wavelengths of 485 nm and 538 nm, respectively, with PBS as a blank. Blood retinal barrier breakdown was calculated using the following equation (1) with the results being expressed in μL g^−1 hr^−1. […]

cleaved caspase-3 = experiment: Western blot of retinal cleaved caspase-3 in diabetic rats; details: diabetic rat retinas, thymoquinone 2 mg/kg i.p. alternate days, three weeks; FIG. 1D
Protocol: (§1) Healthy Sprague Dawley rats (150-200 g) were used for the trials. Animals were issued from Central Animal House Facility of the College of Pharmacy, King Saud University and were kept in standard plastic animal cages in groups of 6 animals each with 12 hours light and dark cycle at 25±2° C. The rats were fed on standard rat chow and provided water ad libitum. The animals were acclimatized to laboratory conditions for a week prior to experiments. Diabetes was induced in overnight fasted rats by administration of Streptozotocin (STZ) at dose of 55 mg/kg intraperitoneally in citric acid buffer (pH 4.5). After one hour of STZ administration, the animals were allowed to feed ad libitum. […] Relevant biochemical parameters including serum creatinine, uric acid, alanine aminotransferase (ALT), aspartate aminotransferase (AST), alkaline phosphatase and bilirubin were assessed using colorimetric methods. […] After incubations with secondary antibodies, membranes were washed four times with TBS-T (5 min each) and the immunoreactivity of bands was visualized on a high-performance chemiluminescence machine by using enhanced chemiluminescence plus Luminol and quantified by densitometric analysis using image processing and analysis in GeneTools. As a control, the blots were stripped and detected with a mouse monoclonal anti-β-actin antibody (1:2000). […]

[2] = system: tyrosine hydroxylase (TH); experiment: Western blot of retinal tyrosine hydroxylase expression in diabetic rats; details: diabetic rat retinas, thymoquinone 2 mg/kg i.p. alternate days, three weeks; FIG. 1B
Protocol: as §1

[3] = system: nerve growth factor receptor (NGFR); experiment: Western blot of retinal NGFR expression in diabetic rats; details: diabetic rat retinas, thymoquinone 2 mg/kg i.p. alternate days, three weeks; FIG. 1C
Protocol: as §1

[4] = system: reactive oxygen species (ROS); experiment: Reactive Oxygen Species (ROS) measurement in retinal tissue homogenates (DCF fluorescence); details: retinas of diabetic animals treated with thymoquinone; FIG. 2
Protocol: Healthy Sprague Dawley rats (150-200 g) were used for the trials. Animals were issued from Central Animal House Facility of the College of Pharmacy, King Saud University and were kept in standard plastic animal cages in groups of 6 animals each with 12 hours light and dark cycle at 25±2° C. The rats were fed on standard rat chow and provided water ad libitum. The animals were acclimatized to laboratory conditions for a week prior to experiments. Diabetes was induced in overnight fasted rats by administration of Streptozotocin (STZ) at dose of 55 mg/kg intraperitoneally in citric acid buffer (pH 4.5). After one hour of STZ administration, the animals were allowed to feed ad libitum. The animals were kept under observation and fasting blood glucose levels were estimated […] 72 hours of STZ treatment. […] Relevant biochemical parameters including serum creatinine, uric acid, alanine aminotransferase (ALT), aspartate aminotransferase (AST), alkaline phosphatase and bilirubin were assessed using colorimetric methods.
Reactive Oxygen Species (ROS) generation was measured in retinal tissue homogenates using a 2′,7′-dichlorofluorescein-diacetate (DCHFDA) as is known in the art. […] Fluorescence was measured using a SpectraMax Gemini-XPS every 15 min for 1 hour with excitation and emission wavelengths of 488 nm and 525 nm, respectively.

[5] = system: Streptozotocin (STZ)-induced diabetic rats; experiment: Blood glucose concentration in STZ-induced diabetic rats with thymoquinone administration; details: TQ 2 mg/Kg intraperitoneally on alternate days
Protocol: (§2) Healthy Sprague Dawley rats (150-200 g) were used for the trials. Animals were issued from Central Animal House Facility of the College of Pharmacy, King Saud University and were kept in standard plastic animal cages in groups of 6 animals each with 12 hours light and dark cycle at 25±2° C. The rats were fed on standard rat chow and provided water ad libitum. The animals were acclimatized to laboratory conditions for a week prior to experiments. Diabetes was induced in overnight fasted rats by administration of Streptozotocin (STZ) at dose of 55 mg/kg intraperitoneally in citric acid buffer (pH 4.5). After one hour of STZ administration, the animals were allowed to feed ad libitum. The animals were kept under observation and fasting blood glucose levels were estimated […] 72 hours of STZ treatment. Animals showing blood glucose levels >350 mg/dl were considered as diabetic and were used for further trials. Diabetic rats were divided into two groups (10 rats per group) at random. Group I served as diabetic control. Group II were administered thymoquinone (2 mg/kg intraperitoneally) in alternate days for three weeks. Healthy rats were also kept as normal controls. Relevant biochemical parameters including serum creatinine, uric acid, alanine aminotransferase (ALT), aspartate aminotransferase (AST), alkaline phosphatase and bilirubin were assessed using colorimetric methods.

[6] = system: Streptozotocin (STZ)-induced diabetic rats; experiment: Kidney and liver function tests (colorimetric serum biochemistry) in STZ-induced diabetic rats
Protocol: as §2

[7] = system: brain derived neurotrophic factor (BDNF); experiment: Western blot of retinal BDNF expression in diabetic rats; details: diabetic rat retinas, thymoquinone 2 mg/kg i.p. alternate days, three weeks; FIG. 1A
Protocol: as §1

[8] = diabetic rats treated with TQ 2 mg/kg i.p. on alternate days for three weeks

CC1=CC(=O)C(C(C)C)=CC1=O [thymoquinone, 2-Isopropyl-5-methylbenzo-1,4-quinone]
effect of diabetes on BRB breakdown (retinal vascular permeability) [1]: significantly attenuated | retinal cleaved caspase-3 (diabetes-induced up-regulation of about 52%) (cleaved caspase-3): normalized | retinal TH levels (diabetes-induced decrease of about 32%) [2]: normalized | retinal NGFR expression (diabetes-induced increase of about 75%) [3]: normalized | ROS generation (DCF retinal levels) [4]: significantly attenuated | Glucose Concentration ([5]; after 7 days of TQ treatment): 580.58 ± 2.40 mg/dL | Glucose Concentration ([5]; after 14 days of TQ treatment): 559.55 ± 1.29 mg/dL | Glucose Concentration ([5]; after 21 days of TQ treatment): 495.10 ± 5.71 mg/dL | kidney and liver function tests versus untreated diabetic animals ([6]; diabetic rats that received thymoquinone): more normal | ALKALINE Phos [6, 8]: 179.08 ± 4.51 U/l | ALT [6, 8]: 134.43 ± 5.21 U/l | AST [6, 8]: 138.48 ± 2.94 U/l | Bilirubin [6, 8]: 3.23 ± 0.04 mg/dL | Creatinine [6, 8]: 0.62 ± 0.05 mg/dL | Uric acid [6, 8]: 4.99 ± 0.07 mg/dL | retinal BDNF expression (diabetes-induced down-regulation of about 65%) [7]: normalized

Source: US10463632B2, “Method for treating a neurovascular complication of diabetes mellitus” (KING SAUD UNIVERSITY, priority 2016, dated 2019)
